Data from ChEMBL document CHEMBL1138676, “Liver-selective glucocorticoid antagonists: a novel treatment for type 2 diabetes” (J Med Chem, 2004).
Each block holds one compound with its values, some of them ahead of it.

Assays:
[1] = target: T1, Glucocorticoid receptor (Homo sapiens, UniProt P04150); experiment: Inhibition of glucocorticoid receptor dependent alkaline phosphatase activity; assay type: functional
T1 sequence (P04150 whole entry): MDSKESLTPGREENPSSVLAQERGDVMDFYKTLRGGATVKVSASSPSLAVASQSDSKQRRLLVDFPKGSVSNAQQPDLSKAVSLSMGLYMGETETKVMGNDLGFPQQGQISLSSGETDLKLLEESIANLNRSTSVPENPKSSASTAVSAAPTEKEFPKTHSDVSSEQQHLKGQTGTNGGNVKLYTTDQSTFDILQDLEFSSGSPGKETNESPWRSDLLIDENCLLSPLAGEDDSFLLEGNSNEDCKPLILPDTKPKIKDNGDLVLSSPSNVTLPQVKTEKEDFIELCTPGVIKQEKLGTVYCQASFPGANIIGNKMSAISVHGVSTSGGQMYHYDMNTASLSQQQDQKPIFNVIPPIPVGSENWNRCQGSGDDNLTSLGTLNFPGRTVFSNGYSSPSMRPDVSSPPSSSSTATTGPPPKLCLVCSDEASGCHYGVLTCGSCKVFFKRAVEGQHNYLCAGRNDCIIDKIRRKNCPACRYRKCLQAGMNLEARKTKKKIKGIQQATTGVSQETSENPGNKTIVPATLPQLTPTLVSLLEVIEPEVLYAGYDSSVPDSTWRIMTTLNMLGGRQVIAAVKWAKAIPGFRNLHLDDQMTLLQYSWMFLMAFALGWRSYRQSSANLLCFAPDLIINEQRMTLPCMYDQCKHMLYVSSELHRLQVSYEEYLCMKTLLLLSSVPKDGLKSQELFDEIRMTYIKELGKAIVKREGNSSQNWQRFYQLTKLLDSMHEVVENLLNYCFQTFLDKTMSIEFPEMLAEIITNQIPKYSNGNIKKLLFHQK

[2] = target: T2, Mineralocorticoid receptor (Homo sapiens, UniProt P08235)
T2 sequence (P08235 whole entry): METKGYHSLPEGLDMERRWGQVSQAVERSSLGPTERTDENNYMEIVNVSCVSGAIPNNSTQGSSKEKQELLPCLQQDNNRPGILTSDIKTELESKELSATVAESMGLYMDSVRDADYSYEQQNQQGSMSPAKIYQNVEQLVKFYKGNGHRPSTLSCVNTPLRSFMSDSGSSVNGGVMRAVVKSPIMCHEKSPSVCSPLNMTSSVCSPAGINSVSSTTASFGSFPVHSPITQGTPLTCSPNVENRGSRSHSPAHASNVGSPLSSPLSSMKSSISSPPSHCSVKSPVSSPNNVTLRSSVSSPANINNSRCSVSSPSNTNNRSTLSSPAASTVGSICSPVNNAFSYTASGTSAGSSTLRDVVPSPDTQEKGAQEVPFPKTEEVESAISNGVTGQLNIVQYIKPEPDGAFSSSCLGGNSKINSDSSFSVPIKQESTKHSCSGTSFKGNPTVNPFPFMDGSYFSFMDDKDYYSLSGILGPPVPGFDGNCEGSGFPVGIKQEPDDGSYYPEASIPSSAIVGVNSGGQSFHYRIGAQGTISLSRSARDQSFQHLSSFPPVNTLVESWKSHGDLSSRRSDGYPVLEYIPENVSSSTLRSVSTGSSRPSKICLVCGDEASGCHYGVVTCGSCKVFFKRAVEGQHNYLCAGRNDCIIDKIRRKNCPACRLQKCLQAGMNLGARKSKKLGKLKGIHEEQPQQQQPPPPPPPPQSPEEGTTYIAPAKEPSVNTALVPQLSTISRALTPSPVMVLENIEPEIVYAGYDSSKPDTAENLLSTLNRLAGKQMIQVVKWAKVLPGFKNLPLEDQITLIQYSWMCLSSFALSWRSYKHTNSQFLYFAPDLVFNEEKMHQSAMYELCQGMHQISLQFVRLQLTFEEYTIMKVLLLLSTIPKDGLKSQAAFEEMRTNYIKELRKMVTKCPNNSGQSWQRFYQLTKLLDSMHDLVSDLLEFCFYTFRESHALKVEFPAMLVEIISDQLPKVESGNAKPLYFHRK
Description: Inhibition of human Mineralocorticoid receptor

[3] = target: Estrogen receptor beta (Homo sapiens, UniProt Q92731); experiment: Inhibition of human Estrogen receptor beta
Sequence of Estrogen receptor beta (Q92731 whole entry): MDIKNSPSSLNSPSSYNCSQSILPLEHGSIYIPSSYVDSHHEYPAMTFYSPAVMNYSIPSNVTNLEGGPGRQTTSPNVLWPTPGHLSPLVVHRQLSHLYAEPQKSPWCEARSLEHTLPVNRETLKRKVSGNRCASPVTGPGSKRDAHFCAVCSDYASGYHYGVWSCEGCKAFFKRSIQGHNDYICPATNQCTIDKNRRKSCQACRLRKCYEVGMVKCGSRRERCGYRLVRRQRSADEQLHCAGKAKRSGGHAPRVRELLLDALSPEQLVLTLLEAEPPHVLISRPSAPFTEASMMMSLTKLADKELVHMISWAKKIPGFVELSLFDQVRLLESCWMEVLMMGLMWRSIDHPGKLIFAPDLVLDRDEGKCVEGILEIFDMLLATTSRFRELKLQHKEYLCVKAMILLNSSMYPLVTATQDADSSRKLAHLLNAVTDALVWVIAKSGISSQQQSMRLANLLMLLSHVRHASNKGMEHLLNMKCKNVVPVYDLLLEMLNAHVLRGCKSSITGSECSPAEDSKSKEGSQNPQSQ

[4] = target: T3, Androgen receptor (Homo sapiens, UniProt P10275)
T3 sequence (P10275 whole entry): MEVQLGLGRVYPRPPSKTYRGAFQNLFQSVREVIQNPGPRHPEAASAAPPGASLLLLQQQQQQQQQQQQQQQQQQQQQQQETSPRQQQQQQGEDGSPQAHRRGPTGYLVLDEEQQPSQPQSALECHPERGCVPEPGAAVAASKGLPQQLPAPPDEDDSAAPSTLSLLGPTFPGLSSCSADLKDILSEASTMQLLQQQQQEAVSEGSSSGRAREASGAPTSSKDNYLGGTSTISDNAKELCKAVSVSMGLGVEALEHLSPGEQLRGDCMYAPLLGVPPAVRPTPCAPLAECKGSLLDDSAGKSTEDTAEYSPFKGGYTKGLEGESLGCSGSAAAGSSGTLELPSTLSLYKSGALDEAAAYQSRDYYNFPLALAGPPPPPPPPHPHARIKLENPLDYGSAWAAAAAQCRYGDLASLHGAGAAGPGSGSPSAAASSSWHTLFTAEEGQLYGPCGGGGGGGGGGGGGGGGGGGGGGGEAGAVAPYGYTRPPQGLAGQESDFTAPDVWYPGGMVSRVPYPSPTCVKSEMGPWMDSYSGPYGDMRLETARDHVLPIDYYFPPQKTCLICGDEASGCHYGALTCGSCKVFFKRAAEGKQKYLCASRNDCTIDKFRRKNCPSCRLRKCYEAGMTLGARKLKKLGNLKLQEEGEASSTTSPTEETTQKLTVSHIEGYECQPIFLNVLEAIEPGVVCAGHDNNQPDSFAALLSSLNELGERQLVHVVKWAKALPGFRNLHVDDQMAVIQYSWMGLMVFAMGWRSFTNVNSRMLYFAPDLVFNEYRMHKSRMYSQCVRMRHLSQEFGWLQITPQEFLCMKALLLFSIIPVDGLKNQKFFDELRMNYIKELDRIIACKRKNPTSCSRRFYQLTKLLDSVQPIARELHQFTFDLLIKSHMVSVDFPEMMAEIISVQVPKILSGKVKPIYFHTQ
Description: Inhibition of human androgen receptor

SMILES: C#C[C@]1(O)CC[C@H]2[C@@H]3CCC4=CC(=O)CCC4=C3[C@@H](c3ccc(N(C)CCOC4CC[C@@]5(C)[C@@H](C4)C[C@@H](O)[C@@H]4[C@@H]5C[C@H](O)[C@]5(C)[C@@H]([C@H](C)CCC(=O)O)CC[C@@H]45)cc3)C[C@@]21C (stereo in doubt; form 2)
- Ki [1]: 1.1 nM
- Ki [2]: 440 nM
- Ki [3]: 110 nM
- Ki [4]: 8.1 nM

SMILES: C#C[C@]1(O)CC[C@H]2[C@@H]3CCC4=CC(=O)CCC4=C3[C@@H](c3ccc(N(C)CCCC(=O)N(C)C4CC[C@@]5(C)[C@@H](C4)C[C@@H](O)[C@@H]4[C@@H]5C[C@H](O)[C@]5(C)[C@@H]([C@H](C)CCC(=O)O)CC[C@@H]45)cc3)C[C@@]21C (some centres undefined)
- Ki [1]: 1.2 nM
- Ki [2]: 190 nM
- Ki [3]: 13 nM
- Ki [4]: 7.4 nM

SMILES: C#C[C@]1(O)CC[C@H]2[C@@H]3CCC4=CC(=O)CCC4=C3[C@@H](c3ccc(N(C)CCC[C@H]4[C@H](O)CC[C@@]5(C)[C@@H]4C[C@@H](O)[C@@H]4[C@@H]5C[C@H](O)[C@]5(C)[C@@H]([C@H](C)CCC(=O)O)CC[C@@H]45)cc3)C[C@@]21C
- Ki [1]: 52 nM
- Ki [2]: > 1000 nM
- Ki [3]: 48 nM
- Ki [4]: 53 nM

SMILES: C#C[C@]1(O)CC[C@H]2[C@@H]3CCC4=CC(=O)CCC4=C3[C@@H](c3ccc(N(C)CCOC4CC[C@@]5(C)[C@@H](C4)C[C@@H](O)[C@@H]4[C@@H]5C[C@H](O)[C@]5(C)[C@@H]([C@H](C)CCC(=O)NCCS(=O)(=O)O)CC[C@@H]45)cc3)C[C@@]21C (some centres undefined)
- Ki [1]: 37 nM
- Ki [2]: 140 nM
- Ki [3]: 30 nM
- Ki [4]: 8.9 nM

SMILES: C#C[C@]1(O)CC[C@H]2[C@@H]3CCC4=CC(=O)CCC4=C3[C@@H](c3ccc(N(C)CCOC4CC[C@@]5(C)[C@@H](C4)C[C@@H](O)[C@@H]4[C@@H]5C[C@H](O)[C@]5(C)[C@@H]([C@H](C)CCC(=O)O)CC[C@@H]45)cc3)C[C@@]21C (stereo in doubt; form 1)
- Ki [1]: 11 nM
- Ki [2]: > 1000 nM
- Ki [3]: 89 nM
- Ki [4]: 8.9 nM

SMILES: C#C[C@]1(O)CC[C@H]2[C@@H]3CCC4=CC(=O)CCC4=C3[C@@H](c3ccc(N(C)C(C)=O)cc3)C[C@@]21C
- Ki [1]: 1.4 nM
- Ki [2]: > 1000 nM
- Ki [3]: 570 nM
- Ki [4]: 8.9 nM

SMILES: C#C[C@]1(O)CC[C@H]2[C@@H]3CCC4=CC(=O)CCC4=C3[C@@H](c3ccc(N(C)CCNC(=O)N(C)C4CC[C@@]5(C)[C@@H](C4)C[C@@H](O)[C@@H]4[C@@H]5C[C@H](O)[C@]5(C)[C@@H]([C@H](C)CCC(=O)O)CC[C@@H]45)cc3)C[C@@]21C (some centres undefined)
- Ki [1]: 15 nM
- Ki [2]: 850 nM
- Ki [3]: 190 nM
- Ki [4]: 16 nM

The remaining compounds from weak to strong by Ki [1], led by results:

- Ki [1]: 250 nM
- Ki [2]: 590 nM
- Ki [3]: 240 nM
- Ki [4]: 34 nM
SMILES: C#C[C@]1(O)CC[C@H]2[C@@H]3CCC4=CC(=O)CCC4=C3[C@@H](c3ccc(N(C)C(=O)CC[C@H](NC(=O)CC[C@@H](C)[C@H]4CC[C@H]5[C@@H]6[C@H](O)C[C@@H]7C[C@H](O)CC[C@]7(C)[C@H]6C[C@H](O)[C@]45C)C(=O)O)cc3)C[C@@]21C

- Ki [1]: 50 nM
- Ki [2]: 310 nM
- Ki [3]: 160 nM
- Ki [4]: 21 nM
SMILES: C#C[C@]1(O)CC[C@H]2[C@@H]3CCC4=CC(=O)CCC4=C3[C@@H](c3ccc(N(C)C(=O)CNC(=O)OC4CC[C@@]5(C)[C@@H](C4)C[C@@H](O)[C@@H]4[C@@H]5C[C@H](O)[C@]5(C)[C@@H]([C@H](C)CCC(=O)O)CC[C@@H]45)cc3)C[C@@]21C (some centres undefined)

- Ki [1]: 49 nM
- Ki [2]: > 1000 nM
- Ki [3]: > 750 nM
- Ki [4]: 37 nM
SMILES: C#C[C@]1(O)CC[C@H]2[C@@H]3CCC4=CC(=O)CCC4=C3[C@@H](c3ccc(N(C)C(=O)CNC(=O)O[C@@H]4C[C@@H]5CC(O)CC[C@]5(C)[C@H]5C[C@H](O)[C@]6(C)[C@@H]([C@H](C)CCC(=O)O)CC[C@H]6[C@H]45)cc3)C[C@@]21C (some centres undefined)

- Ki [1]: 15 nM
- Ki [2]: 300 nM
- Ki [3]: 39 nM
- Ki [4]: 17 nM
SMILES: C#C[C@]1(O)CC[C@H]2[C@@H]3CCC4=CC(=O)CCC4=C3[C@@H](c3ccc(N(C)CCCS(=O)(=O)N(C)C4CC[C@@]5(C)[C@@H](C4)C[C@@H](O)[C@@H]4[C@@H]5C[C@H](O)[C@]5(C)[C@@H]([C@H](C)CCC(=O)O)CC[C@@H]45)cc3)C[C@@]21C (some centres undefined)

- Ki [1]: 8.6 nM
- Ki [2]: 510 nM
- Ki [4]: 34 nM
SMILES: C#C[C@]1(O)CC[C@H]2[C@@H]3CCC4=CC(=O)CCC4=C3[C@@H](c3ccc(N(C)CCOC4CC[C@@]5(C)[C@@H](C4)C[C@@H](O)[C@@H]4[C@@H]5C[C@H](O)[C@]5(C)[C@@H]([C@H](C)CCC(=O)NCC(=O)O)CC[C@@H]45)cc3)C[C@@]21C (some centres undefined)

- Ki [1]: 1.4 nM
- Ki [2]: > 1000 nM
- Ki [3]: > 750 nM
- Ki [4]: 6.2 nM
SMILES: C#C[C@]1(O)CC[C@H]2[C@@H]3CCC4=CC(=O)CCC4=C3[C@@H](c3ccc(N(C)CCNC(=O)OC4CC[C@@]5(C)[C@@H](C4)C[C@@H](O)[C@@H]4[C@@H]5C[C@H](O)[C@]5(C)[C@@H]([C@H](C)CCC(=O)O)CC[C@@H]45)cc3)C[C@@]21C (some centres undefined)

- Ki [1]: 1.1 nM
- Ki [2]: 150 nM
- Ki [3]: 51 nM
- Ki [4]: 3.3 nM
SMILES: C#C[C@]1(O)CC[C@H]2[C@@H]3CCC4=CC(=O)CCC4=C3[C@@H](c3ccc(N(C)CCOCCO[C@H]4CC[C@@]5(C)[C@@H](C4)C[C@@H](O)[C@@H]4[C@@H]5C[C@H](O)[C@]5(C)[C@@H]([C@H](C)CCC(=O)O)CC[C@@H]45)cc3)C[C@@]21C

- Ki [1]: 1.1 nM
- Ki [2]: 80 nM
- Ki [3]: 13 nM
- Ki [4]: 4.6 nM
SMILES: C#C[C@]1(O)CC[C@H]2[C@@H]3CCC4=CC(=O)CCC4=C3[C@@H](c3ccc(N(C)CCCOC4CC[C@@]5(C)[C@@H](C4)C[C@@H](O)[C@@H]4[C@@H]5C[C@H](O)[C@]5(C)[C@@H]([C@H](C)CCC(=O)O)CC[C@@H]45)cc3)C[C@@]21C (some centres undefined)
